# Key:
# Assay type in all cases: physicochemical
# [1] = Stability of human ghrelin in 0.1M HCl and Mcllvain buffer solutions of various pH at 25°C (Example 2, HPLC peak area ratio)
# Procedure: Human ghrelin was dissolved in the following aqueous solutions in the concentration of about 0.15 μmol/mL (0.5 mg/mL).
# 0.1M HCl aqueous solution (pH: 1.1)
# The pH was adjusted with 0.1M citric aqueous acid and 0.2M dibasic sodium phosphate aqueous solution.
# Each solution were stored at 25±2° C. for 8, 24, 48 and 72 hours respectively, and the obtained solutions were detected by HPLC analysis in comparison to the solutions before storage. […] No significant changes of pH in solution before storage and after storage were observed.
# [2] = Stability of human ghrelin in Britton-Robinson buffer solutions of various pH at 40°C (Example 3); conditions: pH range of 2 to 7, stored at 40° C. for 1 day (FIG. 3)
# Procedure: Human ghrelin, which is one of the ghrelins, was dissolved in the Britton-Robinson buffer solutions which is adjusted by combining 0.04M phosphoric acid-acetic acid-boric acid aqueous solution and 0.2M sodium hydrate aqueous solution in appropriate ratio, having pH of 2.1, 3.1, 4.0, 5.0, 6.0, 7.0 and 7.9 to obtain an aqueous solution containing human ghrelin in the concentration of about 0.15 μmol/mL (0.5 mg/mL). The obtained solution was filled in brownish glass ampoules and the ampoules were sealed with fire. For the calculation of kinetic constant, the certain degrees of degradation products have to be occurred in the aqueous solution of the ghrelins, and therefore, the ampoules were stored at 40±1° C., which was severe conditions for storage. The concentration (residual ratio) of human ghrelin was conducted by HPLC with time. At the same time, the pH of the solution was measured and it was confirmed that there was no significant changes of pH in solution.
# The kinetic constants in each pH solution were calculated from the sequential change of the residual ratio, and the results were shown in FIG. 2.
# [3] = Stability of human ghrelin in pH-adjusted purified water at 25°C (Example 7); conditions: for Peak area ratio to total peak area: 25±2°C
# Procedure: Human ghrelin was dissolved in the purified water with about 0.03 μmol/mL (0.1 mg/mL). […] This solution was divided into quarter, and one portion was kept alone and the pH values of the remaining three portions were adjusted to pH 1.8 (with 17 mM of hydrochloric acid), pH 3.9 (with 0.20 mM of hydrochloric acid) and pH 7.8 (with 0.24 mM of sodium hydroxide) respectively, by adding along with hydrochloric acid or sodium hydroxide aqueous solution.
substance,measurement,setting,value
[3-Dehydroalanine]human ghrelin [Dha compound],Production of the degradation product in human ghrelin solution,"[1]; Mcllvain buffer, pH range of 3.0 to 5.0, 25±2°C, up to 72 hours",inhibited
same,Peak area ratio to total peak area,"[1]; human ghrelin 0.5 mg/mL in 0.1M HCl aqueous solution, pH 1, 25±2°C, 8 hr. after",0.15%
same,Peak area ratio to total peak area,"[1]; human ghrelin 0.5 mg/mL in 0.1M HCl aqueous solution, pH 1, 25±2°C, 24 hr. after",0.09%
same,Peak area ratio to total peak area,"[1]; human ghrelin 0.5 mg/mL in 0.1M HCl aqueous solution, pH 1, 25±2°C, 48 hr. after",0.04%
same,Peak area ratio to total peak area,"[1]; human ghrelin 0.5 mg/mL in 0.1M HCl aqueous solution, pH 1, 25±2°C, 72 hr. after",0.00%
same,Peak area ratio to total peak area,"[1]; human ghrelin 0.5 mg/mL in 0.1M HCl aqueous solution, pH 1, 25±2°C, before storage",0.21%
same,Peak area ratio to total peak area,"[1]; human ghrelin 0.5 mg/mL in Mcllvain buffer, pH 2, 25±2°C, 8 hr. after",0.20%
same,Peak area ratio to total peak area,"[1]; human ghrelin 0.5 mg/mL in Mcllvain buffer, pH 2, 25±2°C, 24 hr. after",0.23%
same,Peak area ratio to total peak area,"[1]; human ghrelin 0.5 mg/mL in Mcllvain buffer, pH 2, 25±2°C, 48 hr. after",0.24%
same,Peak area ratio to total peak area,"[1]; human ghrelin 0.5 mg/mL in Mcllvain buffer, pH 2, 25±2°C, 72 hr. after",0.25%
same,Peak area ratio to total peak area,"[1]; human ghrelin 0.5 mg/mL in Mcllvain buffer, pH 2, 25±2°C, before storage",0.20%
same,Peak area ratio to total peak area,"[1]; human ghrelin 0.5 mg/mL in Mcllvain buffer, pH 3, 25±2°C, 8 hr. after",0.20%
same,Peak area ratio to total peak area,"[1]; human ghrelin 0.5 mg/mL in Mcllvain buffer, pH 3, 25±2°C, 24 hr. after",0.23%
same,Peak area ratio to total peak area,"[1]; human ghrelin 0.5 mg/mL in Mcllvain buffer, pH 3, 25±2°C, 48 hr. after",0.24%
same,Peak area ratio to total peak area,"[1]; human ghrelin 0.5 mg/mL in Mcllvain buffer, pH 3, 25±2°C, 72 hr. after",0.25%
same,Peak area ratio to total peak area,"[1]; human ghrelin 0.5 mg/mL in Mcllvain buffer, pH 3, 25±2°C, before storage",0.20%
same,Peak area ratio to total peak area,"[1]; human ghrelin 0.5 mg/mL in Mcllvain buffer, pH 4, 25±2°C, 8 hr. after",0.20%
same,Peak area ratio to total peak area,"[1]; human ghrelin 0.5 mg/mL in Mcllvain buffer, pH 4, 25±2°C, 24 hr. after",0.21%
same,Peak area ratio to total peak area,"[1]; human ghrelin 0.5 mg/mL in Mcllvain buffer, pH 4, 25±2°C, 48 hr. after",0.22%
same,Peak area ratio to total peak area,"[1]; human ghrelin 0.5 mg/mL in Mcllvain buffer, pH 4, 25±2°C, 72 hr. after",0.23%
same,Peak area ratio to total peak area,"[1]; human ghrelin 0.5 mg/mL in Mcllvain buffer, pH 4, 25±2°C, before storage",0.20%
same,Peak area ratio to total peak area,"[1]; human ghrelin 0.5 mg/mL in Mcllvain buffer, pH 5, 25±2°C, 8 hr. after",0.21%
same,Peak area ratio to total peak area,"[1]; human ghrelin 0.5 mg/mL in Mcllvain buffer, pH 5, 25±2°C, 24 hr. after",0.21%
same,Peak area ratio to total peak area,"[1]; human ghrelin 0.5 mg/mL in Mcllvain buffer, pH 5, 25±2°C, 48 hr. after",0.23%
same,Peak area ratio to total peak area,"[1]; human ghrelin 0.5 mg/mL in Mcllvain buffer, pH 5, 25±2°C, 72 hr. after",0.24%
same,Peak area ratio to total peak area,"[1]; human ghrelin 0.5 mg/mL in Mcllvain buffer, pH 5, 25±2°C, before storage",0.21%
same,Peak area ratio to total peak area,"[1]; human ghrelin 0.5 mg/mL in Mcllvain buffer, pH 6, 25±2°C, 8 hr. after",0.21%
same,Peak area ratio to total peak area,"[1]; human ghrelin 0.5 mg/mL in Mcllvain buffer, pH 6, 25±2°C, 24 hr. after",0.26%
same,Peak area ratio to total peak area,"[1]; human ghrelin 0.5 mg/mL in Mcllvain buffer, pH 6, 25±2°C, 48 hr. after",0.31%
same,Peak area ratio to total peak area,"[1]; human ghrelin 0.5 mg/mL in Mcllvain buffer, pH 6, 25±2°C, 72 hr. after",0.35%
same,Peak area ratio to total peak area,"[1]; human ghrelin 0.5 mg/mL in Mcllvain buffer, pH 6, 25±2°C, before storage",0.20%
same,Peak area ratio to total peak area,"[1]; human ghrelin 0.5 mg/mL in Mcllvain buffer, pH 7, 25±2°C, 8 hr. after",0.25%
same,Peak area ratio to total peak area,"[1]; human ghrelin 0.5 mg/mL in Mcllvain buffer, pH 7, 25±2°C, 24 hr. after",0.43%
same,Peak area ratio to total peak area,"[1]; human ghrelin 0.5 mg/mL in Mcllvain buffer, pH 7, 25±2°C, 48 hr. after",0.61%
same,Peak area ratio to total peak area,"[1]; human ghrelin 0.5 mg/mL in Mcllvain buffer, pH 7, 25±2°C, 72 hr. after",0.79%
same,Peak area ratio to total peak area,"[1]; human ghrelin 0.5 mg/mL in Mcllvain buffer, pH 7, 25±2°C, before storage",0.22%
same,Peak area ratio to total peak area,"[1]; human ghrelin 0.5 mg/mL in Mcllvain buffer, pH 8, 25±2°C, 8 hr. after",0.68%
same,Peak area ratio to total peak area,"[1]; human ghrelin 0.5 mg/mL in Mcllvain buffer, pH 8, 25±2°C, 24 hr. after",1.39%
same,Peak area ratio to total peak area,"[1]; human ghrelin 0.5 mg/mL in Mcllvain buffer, pH 8, 25±2°C, 48 hr. after",2.39%
same,Peak area ratio to total peak area,"[1]; human ghrelin 0.5 mg/mL in Mcllvain buffer, pH 8, 25±2°C, 72 hr. after",3.12%
same,Peak area ratio to total peak area,"[1]; human ghrelin 0.5 mg/mL in Mcllvain buffer, pH 8, 25±2°C, before storage",0.24%
same,Production of the degradation product in human ghrelin solution,[2],inhibited
same,Production of the degradation product in human ghrelin solution,"[3]; aqueous solution of pH 3.9 and 4.7, 25±2°C, up to 3 days",inhibited
same,Peak area ratio to total peak area,"[3]; human ghrelin 0.1 mg/mL in purified water adjusted to pH 1.8 with hydrochloric acid, 1 day after",0.31%
same,Peak area ratio to total peak area,"[3]; human ghrelin 0.1 mg/mL in purified water adjusted to pH 1.8 with hydrochloric acid, before storage",0.20%
same,Peak area ratio to total peak area,"[3]; human ghrelin 0.1 mg/mL in purified water adjusted to pH 3.9 with hydrochloric acid, 1 day after",0.20%
same,Peak area ratio to total peak area,"[3]; human ghrelin 0.1 mg/mL in purified water adjusted to pH 3.9 with hydrochloric acid, 3 days after",0.19%
same,Peak area ratio to total peak area,"[3]; human ghrelin 0.1 mg/mL in purified water adjusted to pH 3.9 with hydrochloric acid, before storage",0.20%
same,Peak area ratio to total peak area,"[3]; human ghrelin 0.1 mg/mL in purified water adjusted to pH 7.8 with sodium hydroxide, 1 day after",0.86%
same,Peak area ratio to total peak area,"[3]; human ghrelin 0.1 mg/mL in purified water adjusted to pH 7.8 with sodium hydroxide, before storage",0.24%
same,Peak area ratio to total peak area,"[3]; human ghrelin 0.1 mg/mL in purified water, pH 4.7 (not adjusted), 1 day after",0.21%
same,Peak area ratio to total peak area,"[3]; human ghrelin 0.1 mg/mL in purified water, pH 4.7 (not adjusted), 3 days after",0.21%
same,Peak area ratio to total peak area,"[3]; human ghrelin 0.1 mg/mL in purified water, pH 4.7 (not adjusted), before storage",0.20%

# — patent US8440628B2, “Medical compositions containing ghrelin” (Daiichi Sankyo Company, Limited, priority 2002, dated 2013)
